In US6200962A, “Thionophosphate derivatives, process for their preparation and pharmaceutical compositions containing them” (priority 1994, dated 2001):

Key:
Human neutrophils (PMNs) = test: Chemiluminescence of PMNs activated by cationized streptococci; assay type: cell-based
Procedure: Human neutrophils (PMNs) were isolated from freshly drawn human blood according to already published procedures [Ginsburg et al., ibid.].
Chemiluminescence was measured in activated PMNs at 37° C. in a LUMAC/3M BIOCONTER M2010 connected to a linear recorder. PMNs (3*10^5 -2*10^6 /ml) were pipetted into plastic cuvettes, containing 1 ml HBSS, luminol (5*10^-5 M) and washed Streptococci 20 μl/ml (ten milliliters of a saline-washed suspension of group A Streptococci type 3 strain C203S of an optical density of 5.0 at 550 nm that was treated for 15 min at 37° C. with 100 μg/ml of poly L-histidine (PHSTD)HCL mol wt 23,000). The cationized suspension was then washed in normal saline and resuspended to the original volume. The cuvettes were mixed over a mechanical vortex and the chemiluminescence was immediately monitored until the peak CL was reached.
Modulation of chemiluminescence response was achieved by employing AMTP (compound B) molecules in various concentrations.
Two experiments were done. In the first experiment with 3-4*10^5 cells/ml, a concentration of less than 1 mM of compound B was required to quench 90% of light production. Control 1 in FIG. 13 represents neutrophils treated with streptococcus alone (14,000-17,000 light units at the peak), Spontaneous light production measurements were 1,400-2,000 light CPM. In the second experiment Control 2 represents 1.5*10^6 cells per 1 ml HBSS activation of the cells by cationized streptococcus produced between 50,000-63,000 light units at the peak. 8 mM of compound B reduced the light measurements to the base level of 3500 light units.

[1] = Hydroxyl radical chemiluminescence method (H2O2, NTA-Fe2+, HRP); settings: increasing concentrations
Procedure: Chemiluminescence (CL) was measured in mixtures of H2 O2, NTA-Fe^2+ and HRP (Horseradish peroxidase) systems in a LUMAC/3M BIOCONTER M2010 connected to a linear recorder as described [Ginsburg, I. et al. (1993) Inflammation 17:227-243]. The scavenging of hydroxyl radicals was done by various concentrations of AMTP (compound C dissolved in reaction buffer).
where A is the absorbance in the presence of a scavenger S (AMTPs) at a concentration [S] and A0 is the absorbance in the absence of a scavenger KDR =3.1*10^9 (reaction constant between deoxyribose and OH. radical) [Ebert, M., et al. (1965) Pulse Radiolysis, Academic Press, London] and [DR]=18 mM. […] Considering the fast reaction between H2 O2 and Fe^2+ --NTA and the slow reaction rate between AMTP and hydrogen peroxide as monitored in the ^31 P experiments (FIG. 5), the light decay may be exclusively attributed to hydroxyl radical scavenging.

[2] = Reaction with hydrogen peroxide followed by 31P NMR
Procedure: ROS reaction with AMTP were recorded by ^31 P NMR spectra. ^31 P spectra were referenced to 1% H3 PO4 in D2 O and used as an external standard.
Two products of oxidation were observed by ^31 P NMR (FIG. 4). One product at 9.106 ppm and the other at -3.556 ppm. The second product indicated another fragmentation in the molecule.
Different reaction rates were recorded by NMR kinetics between hydrogen peroxide and compound B either in a more hydrophilic environment and in a more hydrophobic one (different mixtures of 1,4-dioxane and water) with dielectric constants of 72.63 and 9.58 respectively.

[3] = oil(mineral)/water and octanol/water partitioning; assay type: physicochemical
Description: The basic chemical structure of the compounds of the invention includes the group --P--N=S, which resembles the thiourea --N--C=S core, in which the central carbon atom has been replaced by a phosphorus atom, to give --N--P=S, which is the characteristic functional group the novel compounds of the invention. This functional group is based on a primary amido thionophosphate (AMTP) chemical bond. The specific compounds shown in FIG. 1, which are only representative of the numerous possible compounds, differ in their oil(mineral) /water and octanol/water partitioning: […]

Human skin fibroblasts = test: Chromium release from fibroblasts, killing by streptolysin S and glucose oxidase; assay type: cell-based
Procedure: Human skin fibroblasts were kindly supplied by the Department for Human Genetics at Hadassa Hospital in Jerusalem. The cells were grown in D-MEM medium supplemented with glutamine, penicillin, and streptomycin and 10% fetal calf serum [Ginsburg, I. et al. (1992) Inflammation 16:519-538]. Radiolabeled cell monolayers were prepared by the addition of 10 μCi/ml of [^51 Cr]NaCrO4 (New England Nuclear) to […] of trypsinized cells grown in 75-ml tissue culture bottles. The cells were then dispensed into 24-well tissue culture plates (Nunc, Roskilde, Denmark) and grown to confluency in a CO2 incubator.
Hydrogen peroxide flux was generated by the addition of glucose oxidase (0.5 units/ml) to the tissue culture media. Streptolysin S (SLS) of Croup A Streptococci (17 hemolytic units/ml) was employed as a membrane damaging agent.
Culture monolayers were treated for 1 h with the agents listed above. The cultures were monitored periodically for changes in cell morphology. To assess cytotoxicity, the supernatant fluids were removed and centrifuged at 2000 rpm for 2 min. The solubilized radioactivity was then determined in a Contron gamma counter. The total radioactivity associated with untreated controls was solubilized by the addition of 1 ml of 1% Triton X-100. (AMTPs influence on SLS hemolytic activity and on glucose oxidase activity was also tested. No influences were observed).
Fibroblasts in culture were exposed to a synergistic killing mechanism (streptolysin S in combination with an oxidant glucose oxidase) in a D-MEM culture medium that contained 1 mg/ml of glucose (about 0.5-1 mM of H2 O2 was produced after 1 hour of incubation at 37° C.). This system caused about 60% chromium released within an hour. […] The positive controls were DMTU and catalase.

[4] = Lipid hydroperoxides in partially oxidized SUV liposomes; settings: 5 mM, after 24 h
Procedure: SUV liposomes were prepared from egg lecitin at 10% lipid concentration in a 50 ml HEPES buffer pH=6.9 according to already published procedures [Lichtenberg, D. and Barenholz. Y. (1988) Methods of Biochemical Analysis 33:337-462].
Lipid hydroperoxides were monitored by a modified micromolar sensitive spectroscopic method [Siddiqi, A. M. and Tappel, A. L. (1955) Chemist Analyst 44:52]. 50λ of lipids (liposomes or emulsion) were dissolved in 1 ml ethanol. 50λ of 50% potassium iodide solution were then added and the mixture was incubated for half an hour in the dark. The developed color was read in a spectrophotometer at 400 nm.
SUV Liposomes (12.5 mM) with certain degrees of oxidation were incubated with 5 mM AMTP molecules for period of 24 h. Peroxidation number (PN) was measured with potassium iodide in ethanol. AMTPs were able to decompose lipid hvdroperoxide and to reduce the peroxidation number (PN).

CCOP(=S)(NCCO)OCC [Compound B, 2-hydroxyamido diethyithionophosphate]
light production at 8 mM (Human neutrophils (PMNs); 8 mM, 1.5*10^6 cells/ml, control 50,000-63,000): 3500 light units
IC90 (Human neutrophils (PMNs); Homo sapiens, Neutrophil, 3-4*10^5 cells/ml, read-out: concentration required to quench 90% of light production): < 1000 µM
reduction of light emission (Human neutrophils (PMNs); various concentrations): dose dependent reduction of light emission
decay of light (hydroxyl radical scavenging) [1]: Dose dependent decay of light
decomposition by H2O2 ([2]; 5 mM compound, 100 mM H2O2): decomposed by H2 O2
reaction rate with hydrogen peroxide vs dielectric constant ([2]; 1,4-dioxane/water mixtures, dielectric constants 72.63 and 9.58): much faster in high dielectric constants
logP ([3]; octanol/water, read-out: P (octanol/water) (converted)): 0.508
P (oil/water) ([3]; oil(mineral)/water): 0.25
prevention of cell damage, comparative (Human skin fibroblasts): much more efficient than compound C
toxic effects on the cell (Human skin fibroblasts; concentrations of up to 20 mM, compound alone): did not show any toxic effects
protection against cell killing (Human skin fibroblasts; concentrations up to 10 mM, 60 min): 50-60%
reduction of PN, comparative [4]: more effective in reducing PN
